Experimental data from ChEMBL document CHEMBL5055657, “Effect of phenylurea hydroxamic acids on histone deacetylase and VEGFR-2” (Bioorg Med Chem, 2021).

Columns and labels:
PC-3 = test: cells; format: functional, cell-based; details: Homo sapiens, PC-3, 48 h
SK-HEP1 = test: cells; format: functional, cell-based; details: Homo sapiens, SK-HEP1, 48 h
A549 = test: cells; format: functional, cell-based; details: Homo sapiens, A549, 48 h
cells = format: functional; details: Homo sapiens, Endothelial progenitor cell; time 48 hrs
[1] = target: T1, Protein deacetylase HDAC6 (Homo sapiens, UniProt Q9UBN7); test: Inhibition of full length recombinant N-terminal GST-tagged human HDAC6 expressed in baculovirus infected Sf9 insect cells using RHK-K(Ac)-AMC as substrate measured after 90 mins by fluorescence plate reader assay
T1 sequence (Q9UBN7 whole entry): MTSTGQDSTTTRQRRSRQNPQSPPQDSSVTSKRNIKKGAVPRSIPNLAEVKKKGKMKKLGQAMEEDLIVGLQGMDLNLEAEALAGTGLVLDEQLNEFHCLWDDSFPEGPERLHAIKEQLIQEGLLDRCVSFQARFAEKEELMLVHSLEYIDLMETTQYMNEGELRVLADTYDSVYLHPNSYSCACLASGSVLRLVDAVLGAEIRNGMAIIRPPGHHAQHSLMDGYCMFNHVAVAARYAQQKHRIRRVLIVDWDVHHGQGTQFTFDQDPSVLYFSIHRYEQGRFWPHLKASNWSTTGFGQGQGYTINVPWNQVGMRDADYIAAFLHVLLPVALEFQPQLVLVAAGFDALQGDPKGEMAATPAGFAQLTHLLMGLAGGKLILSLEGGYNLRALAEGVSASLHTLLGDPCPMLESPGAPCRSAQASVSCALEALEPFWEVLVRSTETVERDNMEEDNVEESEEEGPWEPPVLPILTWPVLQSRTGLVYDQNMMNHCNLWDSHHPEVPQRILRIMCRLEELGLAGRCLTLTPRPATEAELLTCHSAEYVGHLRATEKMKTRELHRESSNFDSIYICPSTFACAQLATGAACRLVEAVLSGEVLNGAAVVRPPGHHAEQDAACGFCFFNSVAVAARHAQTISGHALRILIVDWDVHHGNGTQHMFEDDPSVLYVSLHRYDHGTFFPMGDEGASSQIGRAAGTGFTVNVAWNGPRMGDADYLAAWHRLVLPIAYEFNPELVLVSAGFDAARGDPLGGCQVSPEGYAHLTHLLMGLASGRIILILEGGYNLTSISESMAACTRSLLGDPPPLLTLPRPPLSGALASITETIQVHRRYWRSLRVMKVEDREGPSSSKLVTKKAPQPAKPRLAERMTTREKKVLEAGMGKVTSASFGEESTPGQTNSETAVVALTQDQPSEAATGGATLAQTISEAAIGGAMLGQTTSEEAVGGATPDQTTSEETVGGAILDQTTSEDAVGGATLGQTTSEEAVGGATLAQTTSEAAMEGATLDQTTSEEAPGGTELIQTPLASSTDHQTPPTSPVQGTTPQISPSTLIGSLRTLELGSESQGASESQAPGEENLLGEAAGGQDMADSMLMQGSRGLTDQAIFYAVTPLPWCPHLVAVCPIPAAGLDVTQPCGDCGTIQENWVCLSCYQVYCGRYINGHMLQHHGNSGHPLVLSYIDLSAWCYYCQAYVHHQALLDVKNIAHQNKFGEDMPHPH

[2] = target: T2, Vascular endothelial growth factor receptor 2 (Homo sapiens, UniProt P35968)
[3] = target: T3, Histone deacetylase (Homo sapiens) (UniProt Q13547+O15379+Q9UBN7+Q92769+Q9UQL6+Q8WUI4+Q9BY41+Q96DB2+P56524+Q9UKV0+Q969S8); test: Inhibition of HDAC in human SK-HEP1 cells assessed as increase in acetylated histone H3 level measured after 24 hrs by Western blot analysis; format: cell-based; details: dose 5-10 µM
[4] = target: T3, Histone deacetylase (Homo sapiens); test: Inhibition of HDAC in human A549 cells assessed as increase in acetylated histone H3 level measured after 24 hrs by Western blot analysis; format: cell-based; details: dose 5-10 µM
[5] = target: T3, Histone deacetylase (Homo sapiens); test: Inhibition of HDAC in human PC-3 cells assessed as increase in acetylated histone H3 level measured after 24 hrs by Western blot analysis; format: cell-based; details: dose 5-10 µM
[6] = target: T3, Histone deacetylase (Homo sapiens); test: Inhibition of HDAC in human SK-HEP1 cells assessed as increase in acetylated alpha tubulin level measured after 24 hrs by Western blot analysis; format: cell-based; details: dose 5-10 µM
[7] = target: T3, Histone deacetylase (Homo sapiens); test: Inhibition of HDAC in human A549 cells assessed as increase in acetylated alpha tubulin level measured after 24 hrs by Western blot analysis; format: cell-based; details: dose 5-10 µM
Histone deacetylase 8 = target: T4, Histone deacetylase 8 (Homo sapiens, UniProt Q9BY41); test: Inhibition of recombinant C-terminal His-fusion tagged/N-terminal Strep2 tagged human HDAC8 (1 to 377 residues) expressed in insect cells using RHK-K(Ac)-K(Ac)-AMC as substrate measured after 60 mins by fluorescence plate reader assay
T4 sequence (Q9BY41 whole entry): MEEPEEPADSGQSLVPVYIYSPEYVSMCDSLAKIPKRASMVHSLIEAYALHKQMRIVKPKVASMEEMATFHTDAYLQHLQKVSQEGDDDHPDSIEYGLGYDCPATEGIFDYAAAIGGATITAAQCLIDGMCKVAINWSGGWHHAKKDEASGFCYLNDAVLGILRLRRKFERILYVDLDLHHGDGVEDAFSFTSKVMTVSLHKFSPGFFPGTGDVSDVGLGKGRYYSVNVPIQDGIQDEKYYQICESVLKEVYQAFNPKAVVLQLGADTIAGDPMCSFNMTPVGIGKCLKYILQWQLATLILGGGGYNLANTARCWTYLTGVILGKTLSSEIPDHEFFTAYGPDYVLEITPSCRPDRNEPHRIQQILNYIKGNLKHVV

[8] = tested on: Endothelial progenitor cell; test: Antiangiogenesis activity in human Endothelial progenitor cells assessed as retarded capillary like tube formation measured for 24 hrs by microscopic analysis; format: functional, tissue-based; details: dose 5-10 µM
[9] = target: T3, Histone deacetylase (Homo sapiens); test: Inhibition of HDAC in human PC-3 cells assessed as increase in acetylated alpha tubulin level measured after 24 hrs by Western blot analysis; format: cell-based; details: dose 5-10 µM
Histone deacetylase 2 = Histone deacetylase 2 (Homo sapiens, UniProt Q92769); test: Inhibition of full length recombinant C-terminal GST-fusion-tagged human HDAC2 expressed in insect cells using RHK-K(Ac)-AMC as substrate measured after 60 mins by fluorescence plate reader assay
Homo sapiens [10] = species: Homo sapiens; test: Selectivity ratio of IC50 for full length recombinant C-terminal FLAG/His-tagged human HDAC1 expressed in baculovirus infected Sf21 insect cells to IC50 for full length recombinant N-terminal GST-tagged human HDAC6 expressed in baculovirus infected Sf9 insect cells
Homo sapiens [11] = species: Homo sapiens; test: Selectivity ratio of IC50 for full length recombinant C-terminal GST-fusion-tagged human HDAC2 to IC50 for full length recombinant N-terminal GST-tagged human HDAC6 expressed in baculovirus infected Sf9 insect cells
Homo sapiens [12] = species: Homo sapiens; test: Selectivity ratio of IC50 for recombinant C-terminal His-fusion tagged/N-terminal Strep2 tagged human HDAC8 (1 to 377 residues) expressed in insect cells to IC50 full length recombinant N-terminal GST-tagged human HDAC6 expressed in baculovirus infected Sf9 insect cells
Histone deacetylase 1 = Histone deacetylase 1 (Homo sapiens, UniProt Q13547); test: Inhibition of full length recombinant C-terminal FLAG/His-tagged human HDAC1 expressed in baculovirus infected Sf21 insect cells using RHK-K(Ac)-AMC as substrate measured after 60 mins by fluorescence plate reader assay
[13] = target: T2, Vascular endothelial growth factor receptor 2; test: Inhibition of VEGFR2 phosphorylation in human Endothelial progenitor cells at 5 to 10 uM measured after 10 mins by Western blot analysis; format: tissue-based; details: Endothelial progenitor cell, dose 5-10 µM

T2 sequence (P35968 whole entry): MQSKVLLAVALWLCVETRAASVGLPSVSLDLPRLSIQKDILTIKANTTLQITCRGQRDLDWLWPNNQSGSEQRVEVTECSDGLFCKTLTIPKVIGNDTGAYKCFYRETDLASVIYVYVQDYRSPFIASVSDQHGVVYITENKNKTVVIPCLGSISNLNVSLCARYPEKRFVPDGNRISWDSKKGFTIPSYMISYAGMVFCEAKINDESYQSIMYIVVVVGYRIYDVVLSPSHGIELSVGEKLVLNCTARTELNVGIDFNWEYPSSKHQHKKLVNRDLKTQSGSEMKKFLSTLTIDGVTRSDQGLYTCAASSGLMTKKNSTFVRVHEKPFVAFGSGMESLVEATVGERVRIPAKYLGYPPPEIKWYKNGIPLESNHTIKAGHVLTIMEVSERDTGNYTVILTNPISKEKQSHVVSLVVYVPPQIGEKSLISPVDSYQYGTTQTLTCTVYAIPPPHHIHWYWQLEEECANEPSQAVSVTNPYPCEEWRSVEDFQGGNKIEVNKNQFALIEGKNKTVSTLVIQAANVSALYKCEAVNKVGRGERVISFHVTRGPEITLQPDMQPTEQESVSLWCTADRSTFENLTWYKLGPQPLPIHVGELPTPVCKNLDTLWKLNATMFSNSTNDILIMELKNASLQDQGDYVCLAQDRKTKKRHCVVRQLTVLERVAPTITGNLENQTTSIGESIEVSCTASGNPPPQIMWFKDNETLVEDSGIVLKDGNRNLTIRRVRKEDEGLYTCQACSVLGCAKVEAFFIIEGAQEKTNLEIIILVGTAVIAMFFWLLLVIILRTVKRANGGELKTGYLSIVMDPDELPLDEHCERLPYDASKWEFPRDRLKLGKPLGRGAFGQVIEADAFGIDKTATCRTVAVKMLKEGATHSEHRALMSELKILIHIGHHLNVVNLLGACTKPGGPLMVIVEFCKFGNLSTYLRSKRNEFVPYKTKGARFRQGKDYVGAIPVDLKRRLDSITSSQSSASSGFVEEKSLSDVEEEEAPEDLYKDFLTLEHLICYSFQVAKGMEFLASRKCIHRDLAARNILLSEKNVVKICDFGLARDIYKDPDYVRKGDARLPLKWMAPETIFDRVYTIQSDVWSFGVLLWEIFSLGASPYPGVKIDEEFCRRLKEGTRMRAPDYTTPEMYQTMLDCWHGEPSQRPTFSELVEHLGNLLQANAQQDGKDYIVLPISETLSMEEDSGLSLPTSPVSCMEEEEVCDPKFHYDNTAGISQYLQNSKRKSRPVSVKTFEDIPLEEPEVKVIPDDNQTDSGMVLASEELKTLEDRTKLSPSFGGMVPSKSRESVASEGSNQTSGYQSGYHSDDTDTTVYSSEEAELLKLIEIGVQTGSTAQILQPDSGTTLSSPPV
Chain of Histone deacetylase 1 (Q13547 whole entry): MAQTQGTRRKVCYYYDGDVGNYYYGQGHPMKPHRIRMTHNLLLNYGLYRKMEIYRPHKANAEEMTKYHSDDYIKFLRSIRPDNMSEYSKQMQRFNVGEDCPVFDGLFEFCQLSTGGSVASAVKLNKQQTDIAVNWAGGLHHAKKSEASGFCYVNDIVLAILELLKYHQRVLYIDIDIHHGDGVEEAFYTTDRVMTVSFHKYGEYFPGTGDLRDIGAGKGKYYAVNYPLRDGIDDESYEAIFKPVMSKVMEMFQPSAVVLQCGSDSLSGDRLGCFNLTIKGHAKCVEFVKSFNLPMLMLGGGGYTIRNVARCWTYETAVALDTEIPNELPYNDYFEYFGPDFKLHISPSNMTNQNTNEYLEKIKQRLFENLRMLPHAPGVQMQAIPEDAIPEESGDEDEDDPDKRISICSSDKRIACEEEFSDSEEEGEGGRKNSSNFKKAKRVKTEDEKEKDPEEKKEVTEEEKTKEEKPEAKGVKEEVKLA
Chain of Histone deacetylase 2 (Q92769 whole entry, the tested form may be a part): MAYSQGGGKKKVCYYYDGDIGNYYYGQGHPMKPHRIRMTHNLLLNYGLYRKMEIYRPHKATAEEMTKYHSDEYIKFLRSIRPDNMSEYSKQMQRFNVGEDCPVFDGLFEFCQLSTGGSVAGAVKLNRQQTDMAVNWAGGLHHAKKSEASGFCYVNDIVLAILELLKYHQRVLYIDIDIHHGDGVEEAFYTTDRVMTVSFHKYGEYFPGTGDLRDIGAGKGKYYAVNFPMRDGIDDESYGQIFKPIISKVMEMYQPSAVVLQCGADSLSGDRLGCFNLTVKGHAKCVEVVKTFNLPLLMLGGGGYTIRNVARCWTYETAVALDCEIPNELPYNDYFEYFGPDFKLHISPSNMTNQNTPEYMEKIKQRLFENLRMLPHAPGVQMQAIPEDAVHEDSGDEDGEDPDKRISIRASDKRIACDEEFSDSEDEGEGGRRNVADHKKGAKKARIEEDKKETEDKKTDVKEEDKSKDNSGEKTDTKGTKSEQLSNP

Structure (SMILES) | IC50 (PC-3) | IC50 (SK-HEP1) | IC50 (A549) | GI50 (cells) | IC50 [1] | further results
O=C(CCCCCC(=O)Nc1ccc(NC(=O)Nc2ccc(Cl)c(C(F)(F)F)c2)cc1)NO | > 10 µM | > 10 µM | > 10 µM | > 10000 nM | – | –
O=C(Nc1ccc2c(c1)CCN2Cc1ccc(C(=O)NO)cc1)Nc1ccc(Cl)c(C(F)(F)F)c1 | 3.4 µM | 4.6 µM | 3.1 µM | 1600 nM | – | –
O=C(CCCC(=O)Nc1ccc(NC(=O)Nc2ccc(Cl)c(C(F)(F)F)c2)cc1)NO | > 10 µM | > 10 µM | > 10 µM | > 10000 nM | – | –
O=C(CCCCCCC(=O)Nc1ccc(NC(=O)Nc2ccc(Cl)c(C(F)(F)F)c2)cc1)NO | 4.6 µM | 8.1 µM | 9.5 µM | 4500 nM | – | –
O=C(/C=C/c1ccc(CN2CCc3cc(NC(=O)Nc4ccc(Cl)c(C(F)(F)F)c4)ccc32)cc1)NO | 2.3 µM | 3.5 µM | 2.7 µM | 1200 nM | 1140 nM | –
O=C(Nc1ccc(NCc2ccc(C(=O)NO)cc2)cc1)Nc1ccc(Cl)c(C(F)(F)F)c1 | 3.8 µM | 7.2 µM | 4.3 µM | 2800 nM | – | –
CNC(=O)c1cc(Oc2ccc(NC(=O)Nc3ccc(Cl)c(C(F)(F)F)c3)cc2)ccn1 [SORAFENIB] | 6.3 µM | 7.3 µM | 5 µM | 5000 nM | – | –
O=C(Nc1ccc(C(=O)NO)cc1)Nc1ccc(Cl)c(C(F)(F)F)c1 | 3.1 µM | 3.8 µM | 7.2 µM | 1300 nM | – | –
O=C(Nc1ccc2c(c1)CCN2c1ccc(C(=O)NO)cc1)Nc1ccc(Cl)c(C(F)(F)F)c1 | 3.8 µM | 4.1 µM | 3.4 µM | 2000 nM | 825 nM | –
O=C(Nc1ccc2c(c1)CCCN2c1ccc(C(=O)NO)cc1)Nc1ccc(Cl)c(C(F)(F)F)c1 | 3 µM | 3.4 µM | 2.9 µM | 1000 nM | 1200 nM | IC50 [2]: 13.2 µM
O=C(Nc1ccc(Nc2ncc(C(=O)NO)cn2)cc1)Nc1ccc(Cl)c(C(F)(F)F)c1 | > 10 µM | > 10 µM | > 10 µM | 5800 nM | – | –
O=C(/C=C/c1ccc(NC(=O)Nc2ccc(Cl)c(C(F)(F)F)c2)cc1)NO | 1.9 µM | 3.2 µM | 3.4 µM | 1000 nM | 166 nM | inhibition [3]: Dose-dependent effect; inhibition [4]: Dose-dependent effect; inhibition [5]: Dose-dependent effect; IC50 [2]: 13.2 µM; inhibition [6]: Dose-dependent effect; inhibition [7]: Dose-dependent effect; IC50 (Histone deacetylase 8): 1990 nM; Activity [8]: Dose-dependent effect; inhibition [9]: Dose-dependent effect; IC50 (Histone deacetylase 2): > 10 µM; Ratio IC50 (Homo sapiens [10]): 43.6; Ratio IC50 (Homo sapiens [11]): > 60.2; Ratio IC50 (Homo sapiens [12]): 12; IC50 (Histone deacetylase 1): 7.23 µM; inhibition [13]: Dose-dependent effect
O=C(Nc1ccc2c(c1)N(Cc1ccc(C(=O)NO)cc1)CC2)Nc1ccc(Cl)c(C(F)(F)F)c1 | 3.1 µM | 4.5 µM | 2.8 µM | 1400 nM | 251 nM | inhibition [3]: Dose-dependent effect; inhibition [4]: Dose-dependent effect; inhibition [5]: Dose-dependent effect; inhibition [6]: Dose-dependent effect; inhibition [7]: Dose-dependent effect; IC50 (Histone deacetylase 8): 1710 nM; inhibition [9]: Dose-dependent effect; Ratio IC50 (Homo sapiens [12]): 6.8
O=C(Nc1ccc2c(c1)CCCN2Cc1ccc(C(=O)NO)cc1)Nc1ccc(Cl)c(C(F)(F)F)c1 | 3.2 µM | 4.5 µM | 3 µM | 1400 nM | – | –
O=C(CCCCC(=O)Nc1ccc(NC(=O)Nc2ccc(Cl)c(C(F)(F)F)c2)cc1)NO | > 10 µM | > 10 µM | > 10 µM | > 10000 nM | – | –
